From ChEMBL document CHEMBL1153634, “Synthesis of novel triterpenoid (lupeol) derivatives and their in vivo antihyperglycemic and antidyslipidemic activity” (2009)
Active and inactive are the calls of the source. The calls are words filed in the database; no cut-off is given here.

Key:
Syrian golden hamster [1] = test: Antidyslipidemic activity in high fat diet fed dyslipidemic golden Syrian hamster model assessed as change in plasma […] level at 50 mg/kg, po administered once daily from day 4 to day 10 measured on day 10 after 2 hrs of last dose relative to baseline; assay type: functional, Mesocricetus auratus
Syrian golden hamster [2] = test: Antidyslipidemic activity in high fat diet fed dyslipidemic golden Syrian hamster model assessed as change in plasma glycerol level at 50 mg/kg, po administered once daily from day 4 to day 10 measured on day 10 after 2 hrs of last dose relative to baseline; assay type: functional, Mesocricetus auratus
Syrian golden hamster [3] = test: Antidyslipidemic activity in high fat diet fed dyslipidemic golden Syrian hamster model assessed as change in plasma HDL-cholesterol level at 50 mg/kg, po administered once daily from day 4 to day 10 measured on day 10 after 2 hrs of last dose relative to baseline; assay type: functional, Mesocricetus auratus
Syrian golden hamster [4] = test: Antidyslipidemic activity in high fat diet fed dyslipidemic golden Syrian hamster model assessed as change in plasma triglyceride level at 50 mg/kg, po administered once daily from day 4 to day 10 measured on day 10 after 2 hrs of last dose relative to baseline; assay type: functional, Mesocricetus auratus
Syrian golden hamster [5] = test: Antidyslipidemic activity in high fat diet fed dyslipidemic golden Syrian hamster model assessed as change in food intake at 50 mg/kg, po administered once daily from day 4 to day 10 measured on day 10 after 2 hrs of last dose relative to baseline; assay type: functional, Mesocricetus auratus
Syrian golden hamster [6] = test: Antidyslipidemic activity in high fat diet fed dyslipidemic golden Syrian hamster model assessed as change in plasma cholesterol level at 50 mg/kg, po administered once daily from day 4 to day 10 measured on day 10 after 2 hrs of last dose relative to baseline; assay type: functional, Mesocricetus auratus
Syrian golden hamster [7] = test: Antidyslipidemic activity in high fat diet fed dyslipidemic golden Syrian hamster model assessed as change in plasma HDL to cholesterol ratio at 50 mg/kg, po administered once daily from day 4 to day 10 measured on day 10 after 2 hrs of last dose relative to baseline; assay type: functional, Mesocricetus auratus
Rattus norvegicus [8] = test: Antihyperglycemic activity in sucrose challenged albino Sprague-Dawley rat STZ-S model assessed as decrease in blood glucose level at 100 mg/kg, po preincubated 30 min before sucrose challenge measured 5 hrs after last dose; assay type: functional; design: scale not given: the % may be the effect or the level left
Rattus norvegicus [9] = test: Antihyperglycemic activity in sucrose challenged albino Sprague-Dawley rat STZ-S model assessed as decrease in blood glucose level at 100 mg/kg, po preincubated 30 min before sucrose challenge measured 24 hrs after last dose; assay type: functional; design: scale not given: the % may be the effect or the level left
Syrian golden hamster [10] = test: Antidyslipidemic activity in high fat diet fed dyslipidemic golden Syrian hamster model assessed as change in plasma HDL-cholesterol level at 100 mg/kg, po administered once daily from day 4 to day 10 measured on day 10 after 2 hrs of last dose relative to baseline; assay type: functional, Mesocricetus auratus
Syrian golden hamster [11] = test: Antidyslipidemic activity in high fat diet fed dyslipidemic golden Syrian hamster model assessed as change in plasma HDL to cholesterol ratio at 100 mg/kg, po administered once daily from day 4 to day 10 measured on day 10 after 2 hrs of last dose relative to baseline; assay type: functional, Mesocricetus auratus
Syrian golden hamster [12] = test: Antidyslipidemic activity in high fat diet fed dyslipidemic golden Syrian hamster model assessed as change in plasma glycerol level at 100 mg/kg, po administered once daily from day 4 to day 10 measured on day 10 after 2 hrs of last dose relative to baseline; assay type: functional, Mesocricetus auratus
Syrian golden hamster [13] = test: Antidyslipidemic activity in high fat diet fed dyslipidemic golden Syrian hamster model assessed as change in plasma free fatty acid level at 100 mg/kg, po administered once daily from day 4 to day 10 measured on day 10 after 2 hrs of last dose relative to baseline; assay type: functional, Mesocricetus auratus
Syrian golden hamster [14] = test: Antidyslipidemic activity in high fat diet fed dyslipidemic golden Syrian hamster model assessed as change in plasma cholesterol level at 100 mg/kg, po administered once daily from day 4 to day 10 measured on day 10 after 2 hrs of last dose relative to baseline; assay type: functional, Mesocricetus auratus
Syrian golden hamster [15] = test: Antidyslipidemic activity in high fat diet fed dyslipidemic golden Syrian hamster model assessed as change in plasma triglyceride level at 100 mg/kg, po administered once daily from day 4 to day 10 measured on day 10 after 2 hrs of last dose relative to baseline; assay type: functional, Mesocricetus auratus
Syrian golden hamster [16] = test: Antidyslipidemic activity in high fat diet fed dyslipidemic golden Syrian hamster model assessed as change in plasma cholesterol level at 108 mg/kg, po administered once daily from day 4 to day 10 measured on day 10 after 2 hrs of last dose; assay type: functional, Mesocricetus auratus
Syrian golden hamster [17] = test: Antidyslipidemic activity in high fat diet fed dyslipidemic golden Syrian hamster model assessed as change in plasma triglyceride level at 108 mg/kg, po administered once daily from day 4 to day 10 measured on day 10 after 2 hrs of last dose; assay type: functional, Mesocricetus auratus
Syrian golden hamster [18] = test: Antidyslipidemic activity in high fat diet fed dyslipidemic golden Syrian hamster model assessed as change in plasma glycerol level at 108 mg/kg, po administered once daily from day 4 to day 10 measured on day 10 after 2 hrs of last dose; assay type: functional, Mesocricetus auratus
Syrian golden hamster [19] = test: Antidyslipidemic activity in high fat diet fed dyslipidemic golden Syrian hamster model assessed as change in plasma HDL to cholesterol ratio at 108 mg/kg, po administered once daily from day 4 to day 10 measured on day 10 after 2 hrs of last dose; assay type: functional, Mesocricetus auratus
Syrian golden hamster [20] = test: Antidyslipidemic activity in high fat diet fed dyslipidemic golden Syrian hamster model assessed as change in plasma HDL-cholesterol level at 108 mg/kg, po administered once daily from day 4 to day 10 measured on day 10 after 2 hrs of last dose; assay type: functional, organism-based; design: dose 108 mg/kg; conditions: Mesocricetus auratus

Structure (SMILES)	Activity (Syrian golden hamster [1])	Activity (Syrian golden hamster [2])	Activity (Syrian golden hamster [3])	Activity (Syrian golden hamster [4])	Activity (Syrian golden hamster [5])	Activity (Syrian golden hamster [6])	Activity (Syrian golden hamster [7])	Activity (Rattus norvegicus [8])	Activity (Rattus norvegicus [9])	also measured
C=C(C)[C@@H]1CC[C@]2(C)CC[C@]3(C)[C@H](CC[C@@H]4[C@@]5(C)CC[C@H](OC(=O)Cc6ccc(OC)cc6)C(C)(C)[C@@H]5CC[C@]43C)[C@@H]12	4%	-8%	-5%	20%	-4%	-25%	24%	–	–	–
C=C(C)[C@@H]1CC[C@]2(C)CC[C@]3(C)[C@H](CC[C@@H]4[C@@]5(C)CC[C@H](OC(=O)CCc6cccnc6)C(C)(C)[C@@H]5CC[C@]43C)[C@@H]12	–	–	–	–	–	–	–	-8.21%	-10.4%	–
C=C(C)[C@@H]1CC[C@]2(C)CC[C@]3(C)[C@H](CC[C@@H]4[C@@]5(C)CC[C@H](OC(=O)c6ccc(Cl)cc6)C(C)(C)[C@@H]5CC[C@]43C)[C@@H]12	5%	-14%	-14%	-11%	4%	-27%	14%	-17.8%	-19.6%	–
C=C(C)[C@@H]1CC[C@]2(C)CC[C@]3(C)[C@H](CC[C@@H]4[C@@]5(C)CC[C@H](OC(=O)CNC(=O)c6ccccc6)C(C)(C)[C@@H]5CC[C@]43C)[C@@H]12	–	–	–	–	–	–	–	-13.8%	-23.6%	–
C=C(C)[C@@H]1CC[C@]2(C)CC[C@]3(C)[C@H](CC[C@@H]4[C@@]5(C)CC[C@H](OC(=O)/C=C/c6cccs6)C(C)(C)[C@@H]5CC[C@]43C)[C@@H]12	–	–	–	–	–	–	–	-12.5%	-14.9%	–
C=C(C)[C@@H]1CC[C@]2(C)CC[C@]3(C)[C@H](CC[C@@H]4[C@@]5(C)CC[C@H](OC(=O)Cc6ccccn6)C(C)(C)[C@@H]5CC[C@]43C)[C@@H]12	–	–	–	–	–	–	–	-20.5%	-18.2%	–
C=C(C)[C@@H]1CC[C@]2(C)CC[C@]3(C)[C@H](CC[C@@H]4[C@@]5(C)CC[C@H](O)C(C)(C)[C@@H]5CC[C@]43C)[C@@H]12 [LUPEOL]	–	–	–	–	–	–	–	–	–	Activity (Syrian golden hamster [10]): 44%; Activity (Syrian golden hamster [11]): 63%; Activity (Syrian golden hamster [12]): -10%; Activity (Syrian golden hamster [13]): -23%; Activity (Syrian golden hamster [14]): -9%; Activity (Syrian golden hamster [15]): -26%
C=C(C)[C@@H]1CC[C@]2(C)CC[C@]3(C)[C@H](CC[C@@H]4[C@@]5(C)CC[C@H](OC(=O)/C=C/c6cccnc6)C(C)(C)[C@@H]5CC[C@]43C)[C@@H]12	–	–	–	–	–	–	–	-13.4%	-15.7%	–
C=C(C)[C@@H]1CC[C@]2(C)CC[C@]3(C)[C@H](CC[C@@H]4[C@@]5(C)CC[C@H](OC(=O)/C=C/c6ccco6)C(C)(C)[C@@H]5CC[C@]43C)[C@@H]12	–	–	–	–	–	–	–	-15.8%	-18.5%	–
CC(C)OC(=O)C(C)(C)Oc1ccc(C(=O)c2ccc(Cl)cc2)cc1 [FENOFIBRATE]	–	–	–	–	–	–	–	–	–	Activity (Syrian golden hamster [16]): -18%; Activity (Syrian golden hamster [17]): -42%; Activity (Syrian golden hamster [18]): -36%; Activity (Syrian golden hamster [19]): 10%; Activity (Syrian golden hamster [20]): inactive
C=C(C)[C@@H]1CC[C@]2(C)CC[C@]3(C)[C@H](CC[C@@H]4[C@@]5(C)CC[C@H](OC(=O)/C=C/c6ccsc6)C(C)(C)[C@@H]5CC[C@]43C)[C@@H]12	–	–	–	–	–	–	–	-16.9%	-21.5%	–
CN(C)C(=N)NC(=N)N [METFORMIN]	–	–	–	–	–	–	–	-23.5%	-26.5%	–
C=C(C)[C@@H]1CC[C@]2(C)CC[C@]3(C)[C@H](CC[C@@H]4[C@@]5(C)CC[C@H](OC(=O)c6cccnc6)C(C)(C)[C@@H]5CC[C@]43C)[C@@H]12	2%	-30%	5%	-40%	8%	-24%	57%	-18.3%	-25%	–
C=C(C)[C@@H]1CC[C@]2(C)CC[C@]3(C)[C@H](CC[C@@H]4[C@@]5(C)CC[C@H](OC(=O)c6ccc([N+](=O)[O-])cc6)C(C)(C)[C@@H]5CC[C@]43C)[C@@H]12	6%	-21%	-30%	-20%	4%	-34%	4%	-14.8%	-21.1%	–
C=C(C)[C@@H]1CC[C@]2(C)CC[C@]3(C)[C@H](CC[C@@H]4[C@@]5(C)CC[C@H](OC(=O)c6ccc7ccccc7n6)C(C)(C)[C@@H]5CC[C@]43C)[C@@H]12	-8%	-20%	-30%	-7%	11%	-27%	-5%	–	–	–
